According to PubChem BioAssay AID330 (DTP/NCI, 2004):
“And” between values parts separate entries of the source, which are not always exact repeats. Equal entries are not always repeated. Inconclusive results and toxic doses are left out.

System: P388 leukemia ip, CD2F1 mice, survival T/C
Assay: NCI In Vivo Anticancer Drug Screen. Data for tumor model P388 Leukemia (intraperitoneal) in CD2F1 (CDF1) mice
Conditions: endpoint: median survival time, higher = longer survival
How it was run: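 Mice carrying the transplanted tumor received test compound or vehicle. Survival was recorded in each group, and the value is the treated-group measurement divided by that of the vehicle-treated control group.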

[1] = dose: 100.0 mg/kg/injection, schedule: Q04DX003 (ip), vehicle: saline with Tween-80
[2] = dose: 200.0 mg/kg/injection, schedule: Q04DX003 (ip), vehicle: saline with Tween-80
[3] = dose: 50.0 mg/kg/injection, schedule: Q01DX009 (ip), vehicle: saline with Tween-80
[4] = dose: 100.0 mg/kg/injection, schedule: Q01DX009 (ip), vehicle: saline with Tween-80
[5] = dose: 200.0 mg/kg/injection, schedule: Q01DX009 (ip), vehicle: saline with Tween-80
[6] = dose: 60.0 mg/kg/injection, schedule: Q01DX005 (ip), vehicle: saline with Tween-80
[7] = dose: 120.0 mg/kg/injection, schedule: Q01DX005 (ip), vehicle: saline with Tween-80
[8] = dose: 240.0 mg/kg/injection, schedule: Q01DX005 (ip), vehicle: saline with Tween-80
[9] = dose: 50.0 mg/kg/injection, schedule: Q01DX009 (ip), vehicle: saline
[10] = dose: 100.0 mg/kg/injection, schedule: Q01DX009 (ip), vehicle: saline
[11] = dose: 200.0 mg/kg/injection, schedule: Q01DX009 (ip), vehicle: saline
[12] = dose: 50.0 mg/kg/injection, schedule: Q01DX005 (ip), vehicle: Klucel (hydroxypropylcellulose) (HPC)
[13] = dose: 100.0 mg/kg/injection, schedule: Q01DX005 (ip), vehicle: Klucel (hydroxypropylcellulose) (HPC)
[14] = dose: 200.0 mg/kg/injection, schedule: Q01DX005 (ip), vehicle: Klucel (hydroxypropylcellulose) (HPC)
[15] = dose: 25.0 mg/kg/injection, schedule: Q01DX005 (ip), vehicle: Klucel (hydroxypropylcellulose) (HPC)
[16] = dose: 100.0 mg/kg/injection, schedule: Q01DX001 (ip), vehicle: Klucel (hydroxypropylcellulose) (HPC)
[17] = dose: 200.0 mg/kg/injection, schedule: Q01DX001 (ip), vehicle: Klucel (hydroxypropylcellulose) (HPC)
[18] = dose: 50.0 mg/kg/injection, schedule: Q01DX005 (ip), vehicle: saline with Tween-80
[19] = dose: 100.0 mg/kg/injection, schedule: Q01DX005 (ip), vehicle: saline with Tween-80
[20] = dose: 200.0 mg/kg/injection, schedule: Q01DX005 (ip), vehicle: saline with Tween-80
[21] = dose: 100.0 mg/kg/injection, schedule: Q04DX003 (ip), vehicle: saline
[22] = dose: 200.0 mg/kg/injection, schedule: Q04DX003 (ip), vehicle: saline
[23] = dose: 400.0 mg/kg/injection, schedule: Q04DX003 (ip), vehicle: saline

COCC[P+](c1ccccc1)(c1ccccc1)c1ccccc1
T/C (dose: 1.56 mg/kg/injection, schedule: Q01DX009 (ip), vehicle: water): 103 % of control
T/C (dose: 3.13 mg/kg/injection, schedule: Q01DX009 (ip), vehicle: water): 99 % of control and 109 % of control
T/C (dose: 6.25 mg/kg/injection, schedule: Q01DX009 (ip), vehicle: water): 112 % of control and 123 % of control
T/C (dose: 12.5 mg/kg/injection, schedule: Q01DX009 (ip), vehicle: water): 123 % of control
T/C (dose: 25.0 mg/kg/injection, schedule: Q01DX009 (ip), vehicle: water): 105 % of control and 119 % of control
T/C (dose: 50.0 mg/kg/injection, schedule: Q01DX009 (ip), vehicle: water): 116 % of control

COC(=O)C1C2C=CC(CC2)C1C(=O)OC (stereo unspecified)
T/C [1]: 98 % of control
T/C [2]: 102 % of control
T/C (dose: 400.0 mg/kg/injection, schedule: Q04DX003 (ip), vehicle: saline with Tween-80): 89 % of control

NC(Cc1ccccc1)C(=O)Nc1cccnc1 (stereo unspecified)
T/C (dose: 15.0 mg/kg/injection, schedule: Q01DX005 (ip), vehicle: saline): 98 % of control
T/C (dose: 30.0 mg/kg/injection, schedule: Q01DX005 (ip), vehicle: saline): 102 % of control
T/C (dose: 60.0 mg/kg/injection, schedule: Q01DX005 (ip), vehicle: saline): 102 % of control and 105 % of control

O=C1NC(=O)/C(=C/C=C/c2ccccc2)S1
T/C (dose: 25.0 mg/kg/injection, schedule: Q01DX009 (ip), vehicle: saline with Tween-80): 102 % of control and 111 % of control
T/C [3]: 102 % of control and 116 % of control and 118 % of control
T/C [4]: 93 % of control
T/C [5]: 123 % of control

Cn1c2ccccc2c(=O)c2c(O)cc3c(c21)N=CC(C)(C)O3
T/C [6]: 96 % of control
T/C [7]: 93 % of control
T/C [8]: 93 % of control

Nc1nnc(N)n1N
T/C [3]: 108 % of control
T/C [4]: 115 % of control
T/C [5]: 99 % of control
T/C (dose: 400.0 mg/kg/injection, schedule: Q01DX009 (ip), vehicle: saline with Tween-80): 93 % of control

CC1(c2ccccn2)OCCO1
T/C [9]: 97 % of control
T/C [10]: 104 % of control
T/C [11]: 108 % of control

[N-]=[N+]=NP1(=O)OC(c2ccccc2)=CCN1c1ccccc1 (stereo unspecified)
T/C [12]: 105 % of control
T/C [13]: 103 % of control
T/C [14]: 100 % of control

O=C(O)CCC(=O)NCCNC(=O)CCC(=O)O
T/C [9]: 101 % of control
T/C [10]: 101 % of control
T/C [11]: 104 % of control

O=c1[nH]nc(SCc2c(Cl)cccc2Cl)c(=O)[nH]1
T/C [15]: 95 % of control
T/C [12]: 93 % of control
T/C [13]: 111 % of control
T/C [14]: 95 % of control

COC(=O)C1CC(OC(C)=O)C(=O)[C@H]2C1(C)CC[C@H]1C(=O)O[C@H](c3ccoc3)CC12C (stereo partly specified)
T/C (dose: 19.0 mg/kg/injection, schedule: Q01DX005 (ip), vehicle: Klucel (hydroxypropylcellulose) (HPC)): 94 % of control
T/C (dose: 38.0 mg/kg/injection, schedule: Q01DX005 (ip), vehicle: Klucel (hydroxypropylcellulose) (HPC)): 87 % of control
T/C (dose: 76.0 mg/kg/injection, schedule: Q01DX005 (ip), vehicle: Klucel (hydroxypropylcellulose) (HPC)): 90 % of control

O=C1Cc2ccccc2N1C(=O)c1ccc(Br)cc1
T/C [16]: 94 % of control
T/C [17]: 90 % of control

C=C1C(O)CC2C(O)C3(C)CCC(C)(C)C3C12O (stereo unspecified)
T/C (dose: 18.75 mg/kg/injection, schedule: Q01DX009 (ip), vehicle: other): 106 % of control
T/C (dose: 37.5 mg/kg/injection, schedule: Q01DX009 (ip), vehicle: other): 98 % of control
T/C (dose: 75.0 mg/kg/injection, schedule: Q01DX009 (ip), vehicle: other): 100 % of control
T/C (dose: 150.0 mg/kg/injection, schedule: Q01DX009 (ip), vehicle: other): 93 % of control

CC1SC2(C(=O)Nc3ccc(Br)cc32)N(c2ccc(Cl)cc2)C1=O (stereo unspecified)
T/C [6]: 97 % of control
T/C [7]: 109 % of control
T/C [8]: 100 % of control

C1CNC(C2=NCCN2)=N1
T/C [18]: 108 % of control
T/C [19]: 101 % of control
T/C [20]: 97 % of control

CCN1CC2C3CCC(C)(O3)C2C1 (stereo unspecified)
T/C (dose: 50.0 mg/kg/injection, schedule: Q01DX005 (ip), vehicle: saline): 99 % of control
T/C (dose: 100.0 mg/kg/injection, schedule: Q01DX005 (ip), vehicle: saline): 98 % of control
T/C (dose: 200.0 mg/kg/injection, schedule: Q01DX005 (ip), vehicle: saline): 101 % of control

[CH3][Sn]1([CH3])[O]C(=O)C(=O)[O]1
T/C (dose: 6.25 mg/kg/injection, schedule: Q01DX001 (ip), vehicle: Klucel (hydroxypropylcellulose) (HPC)): 105 % of control
T/C (dose: 12.5 mg/kg/injection, schedule: Q01DX001 (ip), vehicle: Klucel (hydroxypropylcellulose) (HPC)): 102 % of control
T/C (dose: 25.0 mg/kg/injection, schedule: Q01DX001 (ip), vehicle: Klucel (hydroxypropylcellulose) (HPC)): 101 % of control

O=C1c2ccccc2C(=O)N1CC(O)COCc1ccccc1 (stereo unspecified)
T/C [18]: 102 % of control
T/C [19]: 98 % of control
T/C [20]: 100 % of control

OCCNCCNc1ccnc2c1ccc1ccccc12
T/C [18]: 105 % of control

CC(COS(C)(=O)=O)OS(C)(=O)=O (stereo unspecified)
T/C (dose: 50.0 mg/kg/injection, schedule: Q01DX001 (ip), vehicle: Klucel (hydroxypropylcellulose) (HPC)): 98 % of control
T/C [16]: 93 % of control
T/C [17]: 101 % of control

CCCCCCCCCCCCN1C(=O)[N+](C)(C)N=C1[O-]
T/C [21]: 113 % of control
T/C [22]: 105 % of control
T/C [23]: 105 % of control

O=C1C(=O)c2ccccc2C(O)=C1CC=C(Br)Br
T/C [3]: 100 % of control
T/C [4]: 100 % of control
T/C [1]: 100 % of control
T/C [2]: 110 % of control

O=C[C@@H](CO)O[C@H](C=O)n1cnc2c(=O)[nH]cnc21
T/C (dose: 80.0 mg/kg/injection, schedule: Q01DX009 (ip), vehicle: saline): 166 % of control and 169 % of control
T/C (dose: 150.0 mg/kg/injection, schedule: Q01DX005 (ip), vehicle: saline): 171 % of control
T/C (dose: 160.0 mg/kg/injection, schedule: Q01DX009 (ip), vehicle: saline): 187 % of control and 189 % of control and 209 % of control
T/C (dose: 250.0 mg/kg/injection, schedule: Q01DX005 (ip), vehicle: saline): 56 % of control
T/C (dose: 320.0 mg/kg/injection, schedule: Q01DX009 (ip), vehicle: saline): 100 % of control and 104 % of control

CCCCc1ccc(NC(=O)On2c3ccccc3c3ccccc32)cc1
T/C [12]: 96 % of control
T/C [13]: 94 % of control
T/C [14]: 95 % of control

CCCCCCCCCCCCCCN=Cc1c(O)c(O)c(C(C)C)c2cc(C)c(-c3c(C)cc4c(C(C)C)c(O)c(O)c(C=NCCCCCCCCCCCCCC)c4c3O)c(O)c12
T/C (dose: 12.5 mg/kg/injection, schedule: Q01DX005 (ip), vehicle: Klucel (hydroxypropylcellulose) (HPC)): 98 % of control
T/C [15]: 90 % of control
T/C [12]: 98 % of control
T/C [13]: 95 % of control

CCO/C=C1\N=C(C(O)(c2ccc(Cl)cc2)c2ccc(Cl)cc2)OC1=O
T/C (dose: 60.0 mg/kg/injection, schedule: Q01DX005 (ip), vehicle: Klucel (hydroxypropylcellulose) (HPC)): 95 % of control
T/C (dose: 120.0 mg/kg/injection, schedule: Q01DX005 (ip), vehicle: Klucel (hydroxypropylcellulose) (HPC)): 92 % of control
T/C (dose: 240.0 mg/kg/injection, schedule: Q01DX005 (ip), vehicle: Klucel (hydroxypropylcellulose) (HPC)): 98 % of control

CCOC(=O)/C=C/C(=O)O.CCOC(=O)/C=C/C(=O)O.[Mn].[NH-]CC(=O)O
T/C [21]: 96 % of control
T/C [22]: 96 % of control
T/C [23]: 98 % of control

CC(=O)Oc1ccc(OC(C)=O)c2c(OC(C)=O)c(C(CC=C(C)C)OC(C)=O)cc(OC(C)=O)c12 (stereo unspecified)
T/C (dose: 12.5 mg/kg/injection, schedule: Q04DX002 (ip), vehicle: saline with Tween-80): 108 % of control
T/C (dose: 25.0 mg/kg/injection, schedule: Q04DX002 (ip), vehicle: saline with Tween-80): 117 % of control
